Tested on: human myeloma cell line MM.1S
Assay: SILAC acetylated-lysine peptide profiling, HDAC inhibitor vs DMSO (light/heavy ratio)
Type: cell-based
Text: An embodiment of the invention comprises utilizing the SILAC method in order to quantitate changes in protein expression between two or more populations of cells. The SILAC method is a technique based on mass spectrometry that detects differences in protein abundance among samples using non-radioactive isotopic labeling. The SILAC method is known in the art, and described in detail in Ong et al., “Stable Isotope Labeling by Amino Acids in Cell Culture, SILAC, as a Simple and Accurate Approach to Expression Proteomics”, Molecular & Cellular Proteomics, vol. 1, pp. 376-386 (2002), which is incorporated herein by reference in its entirety.
Briefly, the SILAC method involves growing two populations of cells in cell culture. The first population of cells is grown in growth media containing normal amino acids (“normal media”). The second population of cells is grown in media lacking a standard essential amino acid (such as lysine), but is then supplemented with a non-radioactive, isotopically labeled form of that essential amino acid (such as lysine labeled with ^13C atoms, rather than normal ^12C atoms), which is called “heavy media”. When the two populations of cells are each growing in the medium, they incorporate the amino acids into all of their proteins. The growth of cells maintained in the heavy media is no different from that in normal media. All peptides containing the heavy amino acids are heavier than their normal counterparts. The cells from each of the two populations of cells are lysed. The lysates from each of the two cell populations are then combined. The combined cell lysates are then analyzed by mass spectrometry. Pairs of chemically identical peptides of different stable isotope composition can be differentiated in a mass spectrometer due to their difference in mass. The ratio of peak intensities in the mass spectrum for such peptide pairs reflects the abundance ratio for the two proteins.
This example describes SILAC studies that were performed to compare the effects of three different HDAC inhibitors (Compound A, Compound B, and tubastatin A) to a control on a human multiple myeloma cell line. The HDAC inhibitors were also compared amongst themselves to determine differences in their effects.
A human myeloma cell line MM.1S was grown using either ^12C (light) or ^13C (heavy) lysine containing culture medium. The “heavy” cells were treated with DMSO as the control, and the “light” cells were treated with a single HDAC inhibitor at 37° C. for 6 hours. The heavy and light cells were lysed, and the lysates were mixed in 1:1 ratio and digested with the protease trypsin. The acetylated lysine containing peptides (due to the action of the HDAC inhibitor) in the digested peptide pool were captured by a non-specific anti-acetylated lysine antibody cocktail (the antibodies identify both light and heavy acetylated peptides), and subjected to mass spectrometry analysis in order to identify thousands of individual peptides.
Thousands of peptides were identified in pairs (^12C and ^13C) due to their known mass differences. The amino acid sequence and quantitative ratio (Light/Heavy) of a given peptide in two differentially treated cell lysates were then determined and annotated with their possible protein (gene) sources.
As stated above, three HDAC inhibitors (Compound A, Compound B, and Tubastatin A) were used. Thus, the SILAC method was performed three times, with a different HDAC inhibitor compared to a control each time. Accordingly, there are three pairs of quantitative data in the table below, i.e., Compound A:DMSO, Compound B:DMSO, and Tubastatin A:DMSO. A cut-off of 1.30 fold of change (increase or decrease) was then used to determine “changed” or “+” in the table, and any peptides with a fold of change less than 1.3 fold were determined to be “unchanged” or “0” in the table. Those peptides that were not identified were marked as “NA” in the table. […]

Compound: O=C(NO)c1cnc(NC2(c3cccc(F)c3)CCCCC2)nc1 [Compound B, 2-((1-(3-fluorophenyl)cyclohexyl)amino)-N-hydroxypyrimidine-5-carboxamide]
- L/H ratio of acetylated peptide FEK(ac)[…] (SEQ ID NO: 32) (DDX17 [132], log 2 scale, drug vs DMSO): 0.00
- L/H ratio of acetylated peptide (DK(ac)WLCPLSGK (SEQ ID NO: 452), Isoform 2 of Serrate RNA effector molecule homolog [712], SRRT): 0.42 log 2
- L/H ratio of acetylated peptide (DK(ac)[…] (SEQ ID NO: 456), F-box-like/WD repeat-containing protein TBL1XR1 [102], TBL1XR1): 0.86 log 2
- L/H ratio of acetylated peptide ELNK(ac)ILEGR (SEQ ID NO: 2) (DLAT [466], log 2 scale, drug vs DMSO): 0.47
- light to heavy ratio (L/H ratio) of acetylated peptide, log 2 scale (DLEK(ac)WQNNLLPSR (SEQ ID NO: 211), 40S ribosomal protein 515a [88], RPS15A): 0.00
- light to heavy ratio (L/H ratio) of acetylated peptide, log 2 scale (DLMTDLK(ac)SEISGDLAR (SEQ ID NO: 129), Annexin A6 [418], ANXA6): 0.00
- light to heavy ratio (L/H ratio) of acetylated peptide TFEK(ac)SMMNLQTK (SEQ ID NO: 354) (DNA topoisomerase 1 [642], TOP1, drug:DMSO): 0.46 log 2
- L/H ratio of acetylated peptide VVK(ac)HPIFER (SEQ ID NO: 35) (DNAJB11 [247], log 2 scale, drug vs DMSO): 0.00
- L/H ratio of acetylated peptide (DVFNK(ac)GYGFGMVK (SEQ ID NO: 467), Isoform 1 of Voltage-dependent anion-selective channel protein 3 [20], VDAC3): −0.73 log 2
- light to heavy ratio (L/H ratio) of acetylated peptide, log 2 scale (DVK(ac)FGADAR (SEQ ID NO: 173), 60 kDa heat shock protein mitochondrial [31], HSPD1): 0.00
- L/H ratio of acetylated peptide (DVTK(ac)AMDEK (SEQ ID NO: 426), Isoform 2 of 6-phosphofructokinase muscle type [329], PFKM): 0.53 log 2
- L/H ratio of acetylated peptide SFDSEFK(ac)LACK (SEQ ID NO: 8) (DYNC1H1 [4283], log 2 scale, drug vs DMSO): 0.51
- light to heavy ratio (L/H ratio) of acetylated peptide DTYIENEK(ac)LISGK (SEQ ID NO: 352) (Dolichyl-diphosphooligosaccharide--protein glycosyltransferase subunit 1 precursor [626], RPN1, drug:DMSO): 0.77 log 2
- light to heavy ratio (L/H ratio) of acetylated peptide YNIEK(ac)DIAAHIK (SEQ ID NO: 553) (Dynein light chain 1 cytoplasmic [36], gene DYNLL1, inhibitor:DMSO): 0.00 log 2
- light to heavy ratio (L/H ratio) of acetylated peptide YNIEK(ac)DIAAYIK (SEQ ID NO: 331) (Dynein light chain 2 cytoplasmic [36], DYNLL2, drug:DMSO): −0.45 log 2
- L/H ratio of acetylated peptide (EFTK(ac)LEEVLTNK (SEQ ID NO: 400), Glutathione S-transferase omega-1 [152], GSTO1): −0.60 log 2
- L/H ratio of acetylated peptide TSK(ac)NK(ac)SSLSR (SEQ ID NO: 14) (EP300 [1558:1560], log 2 scale, drug vs DMSO): 0.43
- L/H ratio of acetylated peptide (ESESVDK(ac)VMDQK (SEQ ID NO: 404), Isoform 1 of Heterogeneous nuclear ribonucleoprotein D0 [153], HNRNPD): −0.53 log 2
- light to heavy ratio (L/H ratio) of acetylated peptide, log 2 scale (EVHK(ac)[…] (SEQ ID NO: 181), Isoform 1 of L-lactate dehydrogenase A chain [232], LDHA): 0.00
- light to heavy ratio (L/H ratio) of acetylated peptide, log 2 scale (EVQTNDLK(ac)EVVNK (SEQ ID NO: 223), 40S ribosomal protein S3a [182], SNORD73A, RPS3A): 0.00
- light to heavy ratio (L/H ratio) of acetylated peptide YLAEK(ac)YEWDVAEAR (SEQ ID NO: 332) (Elongation factor 2 [638], EEF2, drug:DMSO): −0.40 log 2
- light to heavy ratio (L/H ratio) of acetylated peptide TFK(ac)GVVDVVMK (SEQ ID NO: 550) (Elongation factor G 2 mitochondrial precursor [265], gene GFM2, inhibitor:DMSO): 0.00 log 2
- light to heavy ratio (L/H ratio) of acetylated peptide KSDYIK(ac)LYVR (SEQ ID NO: 315) (Endoplasmin [410], HSP90B1, drug:DMSO): 0.00 log 2
- light to heavy ratio (L/H ratio) of acetylated peptide EK(ac)[…] (SEQ ID NO: 314) (Endoplasmin[ 142], HSP90B1, drug:DMSO): 0.00 log 2
- light to heavy ratio (L/H ratio) of acetylated peptide EVEEDEYK(ac)AFYK (SEQ ID NO: 261) (Endoplasmin[ 356], HSP90B1, drug:DMSO): 0.00 log 2
- light to heavy ratio (L/H ratio) of acetylated peptide LMCK(ac)PIFSK (SEQ ID NO: 335) (Eukaryotic translation initiation factor 2 subunit 3 [312], EIF2S3, drug:DMSO): 0.49 log 2
- light to heavy ratio (L/H ratio) of acetylated peptide SHLAK(ac)EGLYQYK (SEQ ID NO: 533) (Eukaryotic translation initiation factor 3 subunit A [68], gene EIF3A, inhibitor:DMSO): 0.00 log 2
- L/H ratio of acetylated peptide (FAFK(ac)EVEVQAK (SEQ ID NO: 397), Putative rRNA methyltransferase 3 [218], FTSJ3): 0.74 log 2
- L/H ratio of acetylated peptide (FEDENFHYK(ac)HDR (SEQ ID NO: 431), Peptidyl-prolyl cis-trans isomerase D [111], PPID): 0.46 log 2
- L/H ratio of acetylated peptide (FGIAAK(ac)YMLDCR (SEQ ID NO: 468), Isoform 1 of Voltage-dependent anion-selective channel protein 3 [224], VDAC3): 0.43 log 2
- L/H ratio of acetylated peptide (FK(ac)ECLDK (SEQ ID NO: 420), Isoform 2 of N-alpha-acetyltransferase 15 NatA auxiliary subunit [307], NAA15): 0.60 log 2
- light to heavy ratio (L/H ratio) of acetylated peptide, log 2 scale (FLEQQNK(ac)[…] (SEQ ID NO: 241), Vimentin [129], VIM): 0.00

Source: patent US20140357512A1, “HISTONE DEACETYLASE (HDAC) BIOMARKERS IN MULTIPLE MYELOMA” (priority 2013, published 2014)
